Reference: PubChem BioAssay (NCI)
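Test compounds were applied to cells in 96-well plates for 48 hours at 5 doses. The concentration for 50% growth inhibition is given as GI50. At the TGI there is no net growth.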

Legend:
Experiment in all cases: growth of human tumour cells (NCI), 48 h
[1] = system: HT29 colon
[2] = system: BT-549 breast
[3] = system: CCRF-CEM leukemia
[4] = system: MCF7 breast
[5] = system: DU-145 prostate
[6] = system: SF-295 CNS
[7] = system: SK-MEL-28 melanoma
[8] = system: SW-620 colon
[9] = system: U251 CNS
[10] = system: HOP-92 NSCLC
[11] = system: RXF 393 renal
[12] = system: UACC-257 melanoma
[13] = system: SF-268 CNS
[14] = system: OVCAR-4 ovarian
[15] = system: MDA-MB-435
[16] = system: MDA-MB-231 breast
[17] = system: K-562 leukemia
[18] = system: MOLT-4 leukemia
[19] = system: CAKI-1 renal
[20] = system: IGROV1 ovarian
[21] = system: NCI-H522 lung
[22] = system: ACHN renal
[23] = system: OVCAR-5 ovarian
[24] = system: 786-0 renal
[25] = system: COLO 205 colon
[26] = system: UO-31 renal
[27] = system: T-47D breast
[28] = system: A498 renal
[29] = system: SN12C renal
[30] = system: HL-60(TB) leukemia
[31] = system: NCI-H23 lung
[32] = system: HS 578T breast
[33] = system: HCC-2998 colon
[34] = system: NCI-H226 lung
[35] = system: HOP-62 NSCLC
[36] = system: SR leukemia
[37] = system: SNB-19 CNS
[38] = system: OVCAR-8 ovarian
[39] = system: SK-OV-3 ovarian
[40] = system: RPMI-8226 leukemia
[41] = system: TK-10 renal
[42] = system: HCT-15 colon
[43] = system: MALME-3M melanoma
[44] = system: SNB-75 CNS
[45] = system: UACC-62 melanoma
[46] = system: SK-MEL-5 melanoma
[47] = system: SF-539 CNS
[48] = system: NCI-H460 lung
[49] = system: KM12 colon
[50] = system: NCI/ADR-RES ovarian
[51] = system: M14 melanoma
[52] = system: HCT-116 colon
[53] = system: SK-MEL-2 melanoma
[54] = system: PC-3 prostate
[55] = system: LOX IMVI melanoma
[56] = system: OVCAR-3 ovarian
[57] = system: A549 NSCLC

SMILES: C[CH2][Pb]([CH2]C)([CH2]C)[O]C(=O)COC
- GI50 [1]: 1.43 µM
- TGI [1]: 3.38 µM
- GI50 [2]: 0.837 µM
- TGI [2]: 3.61 µM
- GI50 [3]: 0.534 µM
- TGI [3]: 6.84 µM
- GI50 [4]: 0.469 µM
- TGI [4]: 7.53 µM
- GI50 [5]: 1.49 µM
- TGI [5]: 5.68 µM
- GI50 [6]: 1.33 µM
- TGI [6]: 3.06 µM
- GI50 [7]: 0.552 µM
- TGI [7]: 2.9 µM
- GI50 [8]: 0.333 µM
- TGI [8]: 1.33 µM
- GI50 [9]: 1.29 µM
- TGI [9]: 2.94 µM
- GI50 [10]: 0.292 µM
- TGI [10]: 3.28 µM
- GI50 [11]: 0.232 µM
- TGI [11]: 0.783 µM
- GI50 [12]: 0.571 µM
- TGI [12]: 3.26 µM
- GI50 [13]: 1.75 µM
- TGI [13]: 7.02 µM
- GI50 [14]: 0.541 µM
- TGI [14]: 2.91 µM
- GI50 [15]: 0.182 µM
- TGI [15]: 0.409 µM
- GI50 [16]: 1.13 µM
- TGI [16]: 3.37 µM
- GI50 [17]: 0.499 µM
- TGI [17]: 5.77 µM
- GI50 [18]: 1.75 µM
- TGI [18]: 5.97 µM
- GI50 [19]: 1.06 µM
- TGI [19]: 8.04 µM
- GI50 [20]: 1.15 µM
- TGI [20]: 6.33 µM
- GI50 [21]: 0.892 µM
- TGI [21]: 2.48 µM
- GI50 [22]: 0.836 µM
- TGI [22]: 10.2 µM
- GI50 [23]: 1.46 µM
- TGI [23]: 3.77 µM
- GI50 [24]: 1.22 µM
- TGI [24]: 3.11 µM
- GI50 [25]: 1.35 µM
- TGI [25]: 2.96 µM
- GI50 [26]: 0.567 µM
- TGI [26]: 2.95 µM
- GI50 [27]: 0.317 µM
- TGI [27]: 2.53 µM
- GI50 [28]: 0.277 µM
- TGI [28]: 2.29 µM
- GI50 [29]: 2.05 µM
- TGI [29]: 9.19 µM
- GI50 [30]: 0.634 µM
- TGI [30]: 2.45 µM
- GI50 [31]: 1.01 µM
- TGI [31]: 5.07 µM
- GI50 [32]: 0.517 µM
- TGI [32]: 4.57 µM
- GI50 [33]: 0.907 µM
- TGI [33]: 2.39 µM
- GI50 [34]: 1.62 µM
- TGI [34]: 6.17 µM
- GI50 [35]: 1.67 µM
- TGI [35]: 4.06 µM
- GI50 [36]: 0.328 µM
- TGI [36]: 5.07 µM
- GI50 [37]: 1.97 µM
- TGI [37]: 9.06 µM
- GI50 [38]: 1.91 µM
- TGI [38]: 9.03 µM
- GI50 [39]: 1.55 µM
- TGI [39]: 4.93 µM
- GI50 [40]: 0.421 µM
- TGI [40]: 3 µM
- GI50 [41]: 0.832 µM
- TGI [41]: 3.77 µM
- GI50 [42]: 0.737 µM
- TGI [42]: 4.33 µM
- GI50 [43]: 0.337 µM
- TGI [43]: 3.76 µM
- GI50 [44]: 0.304 µM
- TGI [44]: 2.85 µM
- GI50 [45]: 0.407 µM
- TGI [45]: 3.47 µM
- GI50 [46]: 0.427 µM
- TGI [46]: 1.62 µM
- GI50 [47]: 1.23 µM
- TGI [47]: 3.28 µM
- GI50 [48]: 0.951 µM
- TGI [48]: 10.4 µM
- GI50 [49]: 0.817 µM
- TGI [49]: 6.1 µM
- GI50 [50]: 0.785 µM
- TGI [50]: 12 µM
- GI50 [51]: 0.4 µM
- TGI [51]: 1.9 µM
- GI50 [52]: 0.578 µM
- TGI [52]: 1.97 µM
- GI50 [53]: 0.332 µM
- TGI [53]: 0.879 µM
- GI50 [54]: 0.795 µM
- TGI [54]: 2.51 µM
- GI50 [55]: 0.815 µM
- TGI [55]: 2.28 µM
- GI50 [56]: 0.441 µM
- TGI [56]: 1.86 µM
- GI50 [57]: 1.36 µM
- TGI [57]: 6.82 µM

SMILES: CC(=O)N1CCC(Nc2ncc3cc(Oc4ccc(F)cc4F)c(=O)n(C)c3n2)CC1
- GI50 [1]: > 25 µM
- TGI [1]: > 25 µM
- GI50 [2]: > 25 µM
- TGI [2]: > 25 µM
- GI50 [3]: > 25 µM
- TGI [3]: > 25 µM
- GI50 [4]: > 25 µM
- TGI [4]: > 25 µM
- GI50 [5]: > 25 µM
- TGI [5]: > 25 µM
- GI50 [6]: > 25 µM
- TGI [6]: > 25 µM
- GI50 [7]: > 25 µM
- TGI [7]: > 25 µM
- GI50 [8]: > 25 µM
- TGI [8]: > 25 µM
- GI50 [9]: > 25 µM
- TGI [9]: > 25 µM
- GI50 [10]: 2.45 µM
- TGI [10]: > 25 µM
- GI50 [11]: > 16.9 µM
- TGI [11]: > 25 µM
- GI50 [12]: > 25 µM
- TGI [12]: > 25 µM
- GI50 [13]: > 25 µM
- TGI [13]: > 25 µM
- GI50 [14]: > 18.8 µM
- TGI [14]: > 25 µM
- GI50 [15]: > 25 µM
- TGI [15]: > 25 µM
- GI50 [16]: > 25 µM
- TGI [16]: > 25 µM
- GI50 [17]: > 25 µM
- TGI [17]: > 25 µM
- GI50 [18]: > 25 µM
- TGI [18]: > 25 µM
- GI50 [19]: > 25 µM
- TGI [19]: > 25 µM
- GI50 [20]: > 25 µM
- TGI [20]: > 25 µM
- GI50 [21]: > 25 µM
- TGI [21]: > 25 µM
- GI50 [22]: > 25 µM
- TGI [22]: > 25 µM
- GI50 [23]: > 25 µM
- TGI [23]: > 25 µM
- GI50 [24]: > 25 µM
- TGI [24]: > 25 µM
- GI50 [25]: > 25 µM
- TGI [25]: > 25 µM
- GI50 [26]: > 17.7 µM
- TGI [26]: > 25 µM
- GI50 [27]: > 25 µM
- TGI [27]: > 25 µM
- GI50 [28]: 9.26 µM
- TGI [28]: > 25 µM
- GI50 [29]: > 25 µM
- TGI [29]: > 25 µM
- GI50 [30]: > 25 µM
- TGI [30]: > 25 µM
- GI50 [31]: > 25 µM
- TGI [31]: > 25 µM
- GI50 [32]: 8.69 µM
- TGI [32]: > 25 µM
- GI50 [33]: > 25 µM
- TGI [33]: > 25 µM
- GI50 [34]: > 25 µM
- TGI [34]: > 25 µM
- GI50 [35]: > 25 µM
- TGI [35]: > 25 µM
- GI50 [36]: > 25 µM
- TGI [36]: > 25 µM
- GI50 [37]: > 25 µM
- TGI [37]: > 25 µM
- GI50 [38]: > 25 µM
- TGI [38]: > 25 µM
- GI50 [39]: > 25 µM
- TGI [39]: > 25 µM
- GI50 [40]: > 25 µM
- TGI [40]: > 25 µM
- GI50 [41]: > 25 µM
- TGI [41]: > 25 µM
- GI50 [42]: > 25 µM
- TGI [42]: > 25 µM
- GI50 [43]: > 25 µM
- TGI [43]: > 25 µM
- GI50 [44]: > 22 µM
- TGI [44]: > 25 µM
- GI50 [45]: > 25 µM
- TGI [45]: > 25 µM
- GI50 [46]: > 25 µM
- TGI [46]: > 25 µM
- GI50 [47]: > 25 µM
- TGI [47]: > 25 µM
- GI50 [48]: > 25 µM
- TGI [48]: > 25 µM
- GI50 [49]: > 25 µM
- TGI [49]: > 25 µM
- GI50 [50]: > 25 µM
- TGI [50]: > 25 µM
- GI50 [51]: > 25 µM
- TGI [51]: > 25 µM
- GI50 [52]: > 25 µM
- TGI [52]: > 25 µM
- GI50 [53]: > 25 µM
- TGI [53]: > 25 µM
- GI50 [54]: > 25 µM
- TGI [54]: > 25 µM
- GI50 [55]: > 25 µM
- TGI [55]: > 25 µM
- GI50 [56]: > 25 µM
- TGI [56]: > 25 µM
- GI50 [57]: > 25 µM
- TGI [57]: > 25 µM
